The CheMixHub viscosity set
± gives the uncertainty stated by the source.

Assay: xn = mol fraction of the nth substance listed

CCCCCCCCCCCCCCCC + C1CCCCC1
viscosity (298.15 K, 100 kPa, x2 = 0.2): 2.654 ± 0.11 mPa·s | viscosity (298.15 K, 100 kPa, x2 = 0.4): 2.239 ± 0.091 mPa·s | viscosity (298.15 K, 100 kPa, x2 = 0.6): 1.79 ± 0.072 mPa·s | viscosity (298.15 K, 100 kPa, x2 = 0.8): 1.326 ± 0.053 mPa·s | viscosity (298.15 K, 101.33 kPa, x1 = 0.0129): 0.9348 ± 0.0079 mPa·s | viscosity (298.15 K, 101.33 kPa, x2 = 0.1809): 2.717 ± 0.021 mPa·s | viscosity (298.15 K, 101.33 kPa, x2 = 0.3339): 2.395 ± 0.018 mPa·s | viscosity (298.15 K, 101.33 kPa, x2 = 0.458): 2.126 ± 0.017 mPa·s | viscosity (298.15 K, 101.33 kPa, x2 = 0.557): 1.892 ± 0.015 mPa·s | viscosity (298.15 K, 101.33 kPa, x2 = 0.6415): 1.709 ± 0.014 mPa·s | viscosity (298.15 K, 101.33 kPa, x2 = 0.7087): 1.549 ± 0.012 mPa·s | viscosity (298.15 K, 101.33 kPa, x2 = 0.7738): 1.39 ± 0.011 mPa·s | viscosity (298.15 K, 101.33 kPa, x2 = 0.828): 1.27 ± 0.01 mPa·s | viscosity (298.15 K, 101.33 kPa, x2 = 0.8753): 1.169 ± 0.0096 mPa·s | viscosity (298.15 K, 101.33 kPa, x2 = 0.9197): 1.08 ± 0.0089 mPa·s | viscosity (298.15 K, 101.33 kPa, x2 = 0.9513): 1.008 ± 0.0084 mPa·s | viscosity (323.15 K, 100 kPa, x2 = 0.2): 1.632 ± 0.067 mPa·s | viscosity (323.15 K, 100 kPa, x2 = 0.4): 1.399 ± 0.057 mPa·s | viscosity (323.15 K, 100 kPa, x2 = 0.6): 1.154 ± 0.047 mPa·s | viscosity (323.15 K, 100 kPa, x2 = 0.8): 0.8848 ± 0.036 mPa·s

O=CC(Cl)(Cl)Cl + OCc1ccccc1
viscosity (298.15 K, 101 kPa, x1 = 0.0986): 7.956 ± 0.33 mPa·s | viscosity (298.15 K, 101 kPa, x1 = 0.1891): 12.34 ± 0.51 mPa·s | viscosity (298.15 K, 101 kPa, x1 = 0.2795): 18.57 ± 0.77 mPa·s | viscosity (298.15 K, 101 kPa, x1 = 0.3562): 21.83 ± 0.91 mPa·s | viscosity (298.15 K, 101 kPa, x1 = 0.4064): 40.42 ± 1.7 mPa·s | viscosity (298.15 K, 101 kPa, x1 = 0.4364): 50.35 ± 2.1 mPa·s | viscosity (298.15 K, 101 kPa, x1 = 0.4751): 55.16 ± 2.3 mPa·s | viscosity (298.15 K, 101 kPa, x1 = 0.493): 54.24 ± 2.2 mPa·s | viscosity (298.15 K, 101 kPa, x1 = 0.4998): 51.18 ± 2.1 mPa·s | viscosity (298.15 K, 101 kPa, x1 = 0.5395): 39.89 ± 1.7 mPa·s | viscosity (298.15 K, 101 kPa, x1 = 0.5925): 24.53 ± 1 mPa·s | viscosity (298.15 K, 101 kPa, x1 = 0.6679): 9.262 ± 0.39 mPa·s | viscosity (298.15 K, 101 kPa, x1 = 0.7564): 2.888 ± 0.12 mPa·s | viscosity (298.15 K, 101 kPa, x1 = 0.8827): 2.072 ± 0.086 mPa·s | viscosity (323.15 K, 101 kPa, x1 = 0.0986): 3.521 ± 0.15 mPa·s | viscosity (323.15 K, 101 kPa, x1 = 0.1891): 4.774 ± 0.2 mPa·s | viscosity (323.15 K, 101 kPa, x1 = 0.2795): 6.41 ± 0.27 mPa·s | viscosity (323.15 K, 101 kPa, x1 = 0.3562): 6.783 ± 0.28 mPa·s | viscosity (323.15 K, 101 kPa, x1 = 0.4064): 9.558 ± 0.4 mPa·s | viscosity (323.15 K, 101 kPa, x1 = 0.4364): 10.85 ± 0.46 mPa·s | viscosity (323.15 K, 101 kPa, x1 = 0.4751): 10.57 ± 0.45 mPa·s | viscosity (323.15 K, 101 kPa, x1 = 0.493): 10.21 ± 0.45 mPa·s | viscosity (323.15 K, 101 kPa, x1 = 0.4998): 10.01 ± 0.94 mPa·s | viscosity (323.15 K, 101 kPa, x1 = 0.5395): 8.491 ± 0.36 mPa·s | viscosity (323.15 K, 101 kPa, x1 = 0.5925): 6.78 ± 0.28 mPa·s | viscosity (323.15 K, 101 kPa, x1 = 0.6679): 3.796 ± 0.16 mPa·s | viscosity (323.15 K, 101 kPa, x1 = 0.7564): 1.639 ± 0.068 mPa·s | viscosity (323.15 K, 101 kPa, x1 = 0.8827): 1.307 ± 0.054 mPa·s
